{"source": "patent US6211168A", "about": "“Methods for preparation and use of 1α,24 (S)-dihydroxy vitamin D2” (Bone Care International, Inc, priority 1995, dated 2001)", "key": {"[1]": {"test_system": "postmenopausal osteoporotic out-patients", "assay": "preventive treatment of bone mass loss in postmenopausal osteoporotic women", "type": "in vivo, human", "conditions": "at or above 1.0 μg/day, 24 to 36 months", "description": "A clinical study is conducted with postmenopausal osteoporotic out-patientshaving ages between 55 and 75 years. The study involves up to 120 patients randomly divided into three treatment groups and continues for 24 to 36 months. Two of the treatment groups receive constant dosages of 1α,24(S)-dihydroxy vitamin D2 (u.i.d.; two different dose levels at or above 1.0 μg/day) and the other group receives a matching placebo. All patients maintain a normal intake of dietary calcium (500 to 800 mg/day) and refrain from using calcium supplements. Efficacy is evaluated by pre-and post-treatment comparisons of the patient groups with regard to (a) total body calcium retention, and (b) radial and spinal bone mineral density as determined by dual-photon absorptiometry (DPA) or dual-energy x-ray absorptiometry (DEXA). Safety is evaluated by comparisons of urinary hydroxyproline excretion, serum and urine calcium levels, creatinine clearance, blood urea nitrogen, and other routine determinations."}, "HL-60 promyelocytes": {"test_system": "HL-60 promyelocytes", "assay": "HL-60 cell differentiation assay", "type": "cell-based", "conditions": "dose-response; acid esterase, NBT reduction, thymidine incorporation", "description": "A dose-response study is conducted with 1α,24(S)-(OH)2 D2 in the HL-60 cell differentiation assay as described by DeLuca and Ostrom (DeLuca, H. F. and Ostrem, V. K., Prog. Clin. Biol. Res., vol. 259, pp. 41-55 (1988)). In this study, 1α,25-(OH)2 D3 is used as a positive control and appropriate solvents are used as negative controls. The following variables are evaluated: nonspecific acid esterase activity, nitroblue tetrazolium (NBT) reduction, and thymidine incorporation."}, "vitamin D receptor (VDR)": {"target": "T1, vitamin D receptor (VDR) (Homo sapiens, UniProt P11473)", "T1 construct": "RXR partner endogenous (monkey)", "T1 sequence (P11473 1-427)": "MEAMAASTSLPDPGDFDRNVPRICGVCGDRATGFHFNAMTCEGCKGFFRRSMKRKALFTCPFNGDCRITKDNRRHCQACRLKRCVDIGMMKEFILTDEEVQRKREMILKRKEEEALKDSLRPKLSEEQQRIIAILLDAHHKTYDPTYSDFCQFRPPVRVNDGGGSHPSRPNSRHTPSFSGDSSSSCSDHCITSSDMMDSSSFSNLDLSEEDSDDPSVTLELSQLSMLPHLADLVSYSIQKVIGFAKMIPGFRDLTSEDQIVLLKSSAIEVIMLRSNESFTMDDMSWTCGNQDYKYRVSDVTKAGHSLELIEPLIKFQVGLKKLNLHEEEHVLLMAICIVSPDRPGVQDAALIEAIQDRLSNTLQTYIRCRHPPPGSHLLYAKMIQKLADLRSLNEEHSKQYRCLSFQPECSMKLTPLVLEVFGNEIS", "assay": "vitamin D-dependent transcriptional activation: growth hormone production in transfected COS-1 cells", "type": "cell-based", "conditions": "transfected COS-1 cells", "description": "The biological activity in vitro of chemically synthesized 1α,24(S)-(OH)2 D2 and 1α,24(R)-(OH)2 D2 was measured using a vitamin D-dependent transcriptional activation model system in which a vitamin D receptor (VDR)-expressing plasmid pSG5-hVDR1/3and a plasmid p(CT4)^4 TKGH containing a Growth Hormone (GH)-gene, under the control of a vitamin D-responsive element (VDRE) were co-transfected into Green monkey kidney, COS-1 cells. DNA's for these two vectors were supplied by Dr. Mark Haussler, Department of Biochemistry, University of Arizona, Tucson, Ariz.\nTranfected cells were incubated with vitamin D metabolites and growth hormone production was measured."}, "[2]": {"test_system": "dermatitis (contact and ectopic) patients", "assay": "dermatological testing, topical treatment of dermatitis", "type": "in vivo, human", "conditions": "ointment 10 μg per gram, twice daily, four to six weeks", "description": "Compositions containing 1α,24(S)-dihydroxy vitamin D2 are evaluated for therapeutic efficacy of the composition in the topical treatment of dermatitis (contact and ectopic). The composition evaluated is an ointment containing 10 μg of 1α,24-dihydroxy vitamin D2 per gram of ointment in a petrolatum-almond oil base. […] The patients are treated in an out-patient clinic. They are instructed to use the preparation two times a day.\nThe ointment is as far as possible applied to a single lesion, or to an area of the disease. The ointment and its container are weighed before the treatment starts and returned with any unused contents for reweighing at the end of the treatment.\nThe area of the lesion treated is estimated and recorded, and the lesion is photographed as required, together with suitable \"control\" lesions. The latter are preferably lesions of similar size and stage of development, either in the vicinity of the treated lesion or symmetrically contralateral. Relevant details of the photographic procedure are recorded so as to be reproduced when the lesions are next photographed (distance, aperture, angle, background, etc.). The ointment is applied twice daily and preferably left uncovered. The \"control\" lesions are left untreated, but if this is not possible, the treatment used on them is noted. […]"}, "[3]": {"test_system": "healthy postmenopausal women", "assay": "prophylaxis of postmenopausal bone loss", "type": "in vivo, human", "conditions": "at or above 1.0 μg/day", "description": "A clinical study is conducted with healthy postmenopausal women having ages between 55 and 60 years. The study involves up to 80 patients randomly divided into two treatment groups, and continues for 24 to 36 months. One treatment group receives a constant dosage of 1α,24(S)-dihydroxy vitamin D2 (u.i.d.; a dose level at or above 1.0 μg/day) and the other receives a matching placebo. The study is conducted as indicated in Example 2 above."}, "[4]": {"test_system": "postmenopausal osteoporotic women", "assay": "dose ranging study in postmenopausal osteoporotic women", "type": "in vivo, human", "conditions": "oral 0.5 to 8.0 μg/day escalating over five weeks", "description": "Twenty postmenopausal osteoporotic women are enrolled in an open label study.\nOn admission to the study, all patients receive instruction on selecting a daily diet containing 400 to 600 mg of calcium. Compliance to this diet is verified at weekly intervals by 24-hour food records and by interviews with each patient.\nAll patients complete a one-week baseline period, a five-week treatment period, and a one-week post-treatment observation period. During the treatment period, patients orally self-administer 1α,24(S)-dihydroxyvitamin D2 at an initial dose of 0.5 μg/day for the first week, and at successively higher doses of 1.0, 2.0, 4.0, and 8.0 μg/day in each of the following four weeks. All doses are administered before breakfast.\nBlood and urine chemistries are monitored on a weekly basis throughout the study. Key blood chemistries include fasting serum levels of calcium, phosphorus, osteocalcin, creatinine, and blood urea nitrogen. Key urine chemistries include 24-hour excretion of calcium, phosphorus, and creatinine."}}}
{"smiles": "C=C1/C(=C\\C=C2/CCC[C@]3(C)[C@@H]([C@H](C)/C=C/[C@@](C)(O)C(C)C)CC[C@@H]23)C[C@@H](O)C[C@@H]1O", "note": "[1α,24(S)-(OH)2 D2, 1α,24(S)-dihydroxy vitamin D2]", "values": [{"measurement": "incidence of hypercalcemia, hypercalciuria or other metabolic disturbance", "setting": "[1]", "value": "insignificant incidence of hypercalcemia or hypercalciuria, or any other metabolic disturbance"}, {"measurement": "total body calcium, radial and spinal bone densities relative to placebo", "setting": "[1]", "value": "significantly higher total body calcium, and radial and spinal bone densities relative to patients treated with placebo"}, {"measurement": "differentiation of HL-60 promyelocytes to monocytes", "setting": "HL-60 promyelocytes", "value": "potent activity in promoting differentiation of HL-60 promyelocytes to monocytes"}, {"measurement": "activity in the transcriptional activation system compared with the 24(R) epimer", "setting": "vitamin D receptor (VDR)", "value": "significantly more activity in this system than 1α,24(R)-(OH)2 D2"}, {"measurement": "lesion severity score (erythema, scaling, thickness; 0 to 3)", "setting": "[2]", "value": "lower scores than the control lesions"}, {"measurement": "losses in total body calcium, radial or spinal bone densities relative to baseline", "setting": "[3]; 24 to 36 months", "value": "reduced losses in total body calcium, radial or spinal bone densities relative to baseline values"}, {"measurement": "monitored safety parameters", "setting": "[3]; long-term administration", "value": "confirm the safety of long-term 1α,24(S)-dihydroxy vitamin D2 administration"}, {"measurement": "24-hour urinary calcium levels", "setting": "[4]", "value": "modest increases in 24-hour urinary calcium levels"}, {"measurement": "routinely monitored serum parameters", "setting": "[4]", "value": "no effect on any routinely monitored serum parameters"}, {"measurement": "serum osteocalcin levels", "setting": "[4]", "value": "increases in serum osteocalcin levels"}, {"measurement": "urinary excretion of hydroxyproline", "setting": "[4]", "value": "nor does it increase urinary excretion of hydroxyproline"}]}
